{
  "source": "patent US20140127185A1",
  "about": "“METHODS AND COMPOSITIONS USING NEUROPROTECTIVE STEROIDS AND THROMBOLYTIC AGENTS” (priority 2012, published 2014)",
  "key": {"[1]": {"tested_on": "blood-brain barrier (BBB)", "assay": "BBB disruption: serum IgG in ischemic cortex by Western blot", "format": "in vivo, rat", "conditions": "24 hours after ischemic injury and tPA treatment"}, "bEND3 cells": {"tested_on": "bEND3 cells", "assay": "Transendothelial electrical resistance (TEER) after hypoxia/reperfusion (H/R)", "format": "cell-based, mouse", "conditions": "tPA 20 μ/ml; 6 hours hypoxia, 3 hours reoxygenation", "method": "An immortalized mouse brain endothelial cell line (bEND 3) is purchased from American Type Culture Collection (ATCC, VA, USA) and cultured in Dulbecco's modified Eagle Medium (DMEM, ATCC) supplemented with 10% fetal bovine serum (ATCC). bEND 3 cells are seeded onto the luminal side of a filter (0.4 μm pore size; Corning, Lowell, MCA) coated with fibronectin (5 μg/ml) in 12-well plates for a transendothelial electrical resistance (TEER) test; and in 100-mm dishes for Western blot studies. Cell cultures are incubated at 37° C. in a 5%/95% mixture of CO2 and atmospheric air, and the medium is replaced every 3 days.\nThe electrical resistance across the membrane are measured using an Millicell ERS Voltohmmeter (Millipore, Billerica, Mass.). The extracellular matrix-treated Transwell inserts are placed in 12-well plates containing culture medium and then used to measure the background resistance. The resistance measurements of these blank filters are then subtracted from those of filters with cells. Values are shown as Q. based on culture inserts.\nTo mimic ischemia-like conditions in vitro, immortalized mouse brain endothelial (bEND3) cells were exposed to 6 hours of hypoxia and 3 hours of reoxygeneation with or without the administration of tPA at a dose of 20 μ/ml. Reoxygenation was initiated by adding glucose (4.5 g/L)-containing phenol red-free DMEM for 3 hours at 37° C. in 95% air and 5% CO2. The cells were treated with various concentrations progesterone for 24 hours before hypoxia/reperfusion (H/R). BBB integrity was evaluated by transendothelial membrane electrical resistance (TEER) measurement, MMP-9 activity, and the alteration of tight junction proteins following in vitro H/R injury."}, "MMP-9 [2]": {"tested_on": "MMP-9", "assay": "Active MMP-9 fluorometric FRET peptide assay of ischemic cortex lysates", "format": "in vivo, rat", "conditions": "24 hours after ischemia; tPA at 4.5 hours; vs control and tMCAO groups", "method": "A Fluorimetric SensoLyte™ 490 kit (AnaSpec Corp., San Jose, Calif. USA) is used to quantify the specific enzymetic activity of active MMP-9 by using a fluorescence resonance energy transfer peptide containing a fluorescent donor and quenching acceptor (Lin, Hou et al. 2008). The samples (100 μg) are placed in a 96-well plate containing 50 μl of assay buffer. The proteolytic resonance energy transfer peptide is expressed as a fold change in fluorescence intensity at excitation of 355 nm/emission of 460 nm.\nFor in vivo evaluation, Male SD rats were subjected to MCAO, reperfused at 4.5 hours and then treated with tPA only (5 mg/kg body weight via femoral vein) at 4.5 hours post-stroke or with progesterone (intraperitoneally) at 2 hours post-stroke plus tPA at 4.5 hours post-stroke. Rats were killed at 24 hours post-ischemia and their brains perfused for evaluation of cerebral hemorrhage, brain swelling, BBB permeability, MMP-9 activity, and the alteration of tight junction proteins.\nTo directly determine MMP-9 activity after ischemia, proteolytic activity of MMP-9 was measured using a fluorescence resonance energy transfer peptide. […] Consistent with the Western blot results, exposure of cells to H/R and tPA for 9 hours reduced the detected levels of occludin, as compared to control bEND 3 cells, while MMP-9 levels were increased in cells exposed to H/R and tPA for 9 hours."}, "MMP-9 [3]": {"tested_on": "MMP-9", "assay": "MMP-9 levels in bEND3 cells exposed to H/R and tPA", "format": "cell-based, mouse", "conditions": "bEND3 cells exposed to H/R and tPA for 9 hours; progesterone pretreatment", "method": "The bEnd 3 cells grown to confluence on coverslips are subjected to the indicated treatments. For […], cells are washed three times with PBS, fixed in 3% paraformaldehyde for 10 minutes, permeabilized with 02% Triton X-100 in PBS for 10 minutes and blocked with 10% BSA and 0.1% Triton X-100 in PBS for 1 hour. After washing with PBS, the monolyers are incubated with a primary antibody for occludin (Invitrogen, 1:200) and MMP-9 (Abeam, Mass., USA, 1:200) overnight at 4° C. The cell monolayers are then washed 3 times with PBS and incubated with Alexa Fluor 488 anti-rabbit and orange anti-mouse (Molecular Probes, Eugene, Oreg.) for 1 hour. After washing in PBS, the coverslips are mounted on glass slides with Vectasheild with dapi (Vecta Laboratories).\nTo mimic ischemia-like conditions in vitro, immortalized mouse brain endothelial (bEND3) cells were exposed to 6 hours of hypoxia and 3 hours of reoxygeneation with or without the administration of tPA at a dose of 20 μ/ml. […] BBB integrity was evaluated by transendothelial membrane electrical resistance (TEER) measurement, MMP-9 activity, and the alteration of tight junction proteins following in vitro H/R injury.\nTo directly determine MMP-9 activity after ischemia, proteolytic activity of MMP-9 was measured using a fluorescence resonance energy transfer peptide. […]"}, "[4]": {"tested_on": "rats with MCAO induced by homologous blood clots", "assay": "Delayed tPA to cause hemorrhage: embolic MCAO model of hemorrhagic transformation", "format": "in vivo, rat", "conditions": "recombinant tPA 10 mg/kg through the tail vein at 4.5 hours post MCAO-induction", "description": "A focal thromboembolic model of cerebral ischemia is induced in rats by middle cerebral artery occlusion (MCAO) via the fibrin-rich clots technique under isoflurane anesthesia. Surgical anesthesia is induced with isoflurane (5% induction, 2% maintenance, […]). Rats are cannulated with a femoral artery catheter for measurement of arterial blood gases, pH (Ciba-Corning 248 pH/blood gas analyzer), blood glucose, hematocrit and mean arterial blood pressure. The body temperature of the animals is maintained at […] with a heating pad controlled by rectal thermistors. A closed cranial window is made in the right parietal skull (2 mm posterior, 6 mm lateral to bregma) for laser doppler probe placement. The rats are mounted on a modified stereotaxic frame equipped with a facemask. The right common carotid artery (CCA), the right internal carotid artery (ICA) and the right external carotid artery (ECA) are exposed by a ventral incision in throat. After surgical preparation of the right CCA and ligation of the pterygo-palatine artery, a PE10 catheter is inserted into the ECA. The tip of the catheter is placed close to the carotid bifurcation. To achieve thromboembolic occlusion of the right middle cerebral artery, 12 medium-sized fibrin rich clots suspended in phosphate with phosphate buffered saline (0.3 ml) are injected by a 1 ml syringe connected to the catheter. […]"}},
  "data": [
    {"substance": "tPA: serum protease acting specifically on serum plasminogen; also known as alteplase, available commercially as Activase", "values": [
      {"measurement": "Increase of IgG levels in ischemic cortex", "setting": "[1]", "value": "up to 2 ×"},
      {"measurement": "TEER under H/R conditions", "setting": "bEND3 cells", "value": "significantly decreased"},
      {"measurement": "MMP-9 activity (FRET peptide)", "setting": "MMP-9 [2]", "value": "significantly higher"},
      {"measurement": "MMP-9 levels", "setting": "MMP-9 [3]", "value": "increased"},
      {"measurement": "Hemispheric enlargement and hemorrhage", "setting": "[4]", "value": "significant hemispheric enlargement and hemorrhage"}
    ]}
  ]
}
